The record followed here is PubChem BioAssay (NCI).

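Tested at 5 concentrations; 48 h exposure; 96-well plates; endpoints linearly interpolated, else capped at highest concentration. Abbreviation: GI50, concentration required for 50% inhibition of growth. At the TGI there is no net growth.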

Among the test systems are DU-145 prostate; NCI-H226 lung; MCF7 breast; TK-10 renal; OVCAR-8 ovarian; SK-MEL-28 melanoma; MDA-MB-231 breast; SK-MEL-2 melanoma; 786-0 renal; A498 renal.
Assay in all cases: inhibition of tumour cell growth, NCI panel, 48 h

For the compound `Cc1ccc(S(=O)(=O)n2cc(-c3nnnn3-c3ccc(Cl)cc3)c(=O)c3ccccc32)cc1`, the GI50 with DU-145 prostate is above 100 µM; in the experiment with NCI-H226 lung, above 100 µM; in the experiment with MCF7 breast, 80.6 µM; with TK-10 renal it was above 100 µM; in the experiment on OVCAR-8 ovarian, above 100 µM; with SK-MEL-28 melanoma it was above 100 µM. In addition, the GI50 with MDA-MB-231 breast was above 100 µM; with SK-MEL-2 melanoma it was above 100 µM; with 786-0 renal, above 100 µM; in the experiment on A498 renal it was 77.3 µM. Also, the TGI in the experiment on DU-145 prostate, with NCI-H226 lung, in the experiment on MCF7 breast, in the experiment on TK-10 renal, in the experiment on OVCAR-8 ovarian and in the experiment on SK-MEL-28 melanoma was above 100 µM in each case. Moreover, the TGI in the experiment with MDA-MB-231 breast, in the experiment with SK-MEL-2 melanoma, in the experiment on 786-0 renal and with A498 renal was above 100 µM each time.

With `Cc1nc2cc(N)c(Cl)cc2[nH]1`, the TGI in the experiment with DU-145 prostate, with NCI-H226 lung, with MCF7 breast, in the experiment on TK-10 renal, in the experiment with OVCAR-8 ovarian and in the experiment with SK-MEL-28 melanoma was above 100 µM each time. Further, the TGI in the experiment with MDA-MB-231 breast, with SK-MEL-2 melanoma, with 786-0 renal and in the experiment with A498 renal was above 100 µM in each case.

On to `COc1cc2c3c(c4c5ccccc5[nH]c4c2c(OC)c1OC)C(=O)N(CCN1CCCCC1)C3=O`, for which the GI50 in the experiment with DU-145 prostate is 1.22 µM; with NCI-H226 lung it was 1.08 µM; in the experiment with MCF7 breast, 0.734 µM; in the experiment on TK-10 renal it was 1.3 µM; with OVCAR-8 ovarian, 0.487 µM; in the experiment on SK-MEL-28 melanoma, 1.74 µM. Besides, the GI50 was 1.47 µM in the experiment with MDA-MB-231 breast, 3.17 µM with SK-MEL-2 melanoma, 1.27 µM in the experiment on 786-0 renal and 1.35 µM in the experiment on A498 renal. Moreover, the TGI in the experiment on DU-145 prostate stood at 2.54 µM; in the experiment with NCI-H226 lung it was 4.57 µM; with MCF7 breast, 3.09 µM; with TK-10 renal, 2.72 µM; in the experiment on OVCAR-8 ovarian, 2.36 µM; in the experiment on SK-MEL-28 melanoma, 3.32 µM. The TGI came to 3.08 µM with MDA-MB-231 breast, 11.2 µM with SK-MEL-2 melanoma, 2.87 µM in the experiment with 786-0 renal and 4.87 µM in the experiment on A498 renal.

As to `COC(=O)C1C2CCCN2OC1(C)CO` (stereo not given), the TGI with DU-145 prostate, with NCI-H226 lung, in the experiment on MCF7 breast, in the experiment on TK-10 renal, in the experiment on OVCAR-8 ovarian and with SK-MEL-28 melanoma was above 100 µM each time. Further, the TGI in the experiment on MDA-MB-231 breast, in the experiment with SK-MEL-2 melanoma, in the experiment with 786-0 renal and in the experiment with A498 renal was above 100 µM each time.

As for `COc1cc(C2C(C#N)=C(N)Oc3cc(O)ccc32)cc(OC)c1OC` (stereo not given), the GI50 in the experiment on DU-145 prostate was 0.659 µM; in the experiment on NCI-H226 lung it was 6.98 µM; in the experiment with MCF7 breast, 0.334 µM; in the experiment on TK-10 renal it was 8.61 µM; in the experiment on OVCAR-8 ovarian it was 0.856 µM; in the experiment on SK-MEL-28 melanoma, 0.86 µM. Moreover, the GI50 is 1.85 µM with MDA-MB-231 breast, 0.496 µM in the experiment with SK-MEL-2 melanoma, 0.668 µM in the experiment on 786-0 renal and 0.218 µM in the experiment with A498 renal. Moreover, the TGI in the experiment on DU-145 prostate, with NCI-H226 lung, with MCF7 breast, in the experiment on TK-10 renal, in the experiment with OVCAR-8 ovarian and with SK-MEL-28 melanoma was above 100 µM throughout. Moreover, the TGI in the experiment with MDA-MB-231 breast is above 100 µM; in the experiment on SK-MEL-2 melanoma, above 100 µM; in the experiment with 786-0 renal, above 100 µM; in the experiment on A498 renal, 1.45 µM.

In the case of `CC/C=C\C/C=C\C[C@H]1C/C=C2/C(=O)C=C[C@H]2C/C=C\CCC(=O)O1`, the GI50 was 4.33 µM in the experiment on DU-145 prostate; 2.78 µM with NCI-H226 lung; 0.824 µM in the experiment with MCF7 breast; 4.72 µM in the experiment with TK-10 renal; 4.73 µM with OVCAR-8 ovarian; 3.12 µM with SK-MEL-28 melanoma. Moreover, the GI50 with MDA-MB-231 breast is 4.65 µM; with SK-MEL-2 melanoma it was 3.45 µM; in the experiment with 786-0 renal, 3.13 µM; in the experiment on A498 renal, 4.07 µM. For the same compound, the TGI was above 14.3 µM with DU-145 prostate; 8.54 µM in the experiment on NCI-H226 lung; 11.8 µM with MCF7 breast; 12.9 µM with TK-10 renal; above 14.3 µM with OVCAR-8 ovarian; 8.01 µM with SK-MEL-28 melanoma. Moreover, the TGI is above 14.3 µM with MDA-MB-231 breast, 9.94 µM in the experiment with SK-MEL-2 melanoma, 7.45 µM in the experiment on 786-0 renal and 13.3 µM in the experiment on A498 renal.

On to `COc1cc(NC(N)=NCCC(C)(C)c2ccc(C(F)(F)F)cc2)ncc1C#N`, for which the GI50 in the experiment on DU-145 prostate is 1.93 µM; in the experiment on NCI-H226 lung, 1.6 µM; in the experiment with MCF7 breast, 1.45 µM; in the experiment with TK-10 renal, 1.51 µM; with OVCAR-8 ovarian it was 1.7 µM; with SK-MEL-28 melanoma, 2.01 µM. The GI50 is 1.8 µM in the experiment with MDA-MB-231 breast, 1.84 µM with SK-MEL-2 melanoma, 1.71 µM in the experiment on 786-0 renal and 1.88 µM with A498 renal. In addition, the TGI in the experiment with DU-145 prostate was found to be 3.51 µM; in the experiment with NCI-H226 lung, 3.36 µM; in the experiment on MCF7 breast, 2.98 µM; in the experiment with TK-10 renal, 2.88 µM; in the experiment with OVCAR-8 ovarian, 3.18 µM; in the experiment on SK-MEL-28 melanoma it was 3.52 µM. Also, the TGI with MDA-MB-231 breast turned out to be 3.34 µM; with SK-MEL-2 melanoma, 3.38 µM; in the experiment on 786-0 renal, 3.14 µM; with A498 renal it was 3.69 µM.

For the compound `C/C(=N\NC(=O)c1ccncc1)c1ccc(O)cc1O`, the GI50 was 3.63 µM with DU-145 prostate; 5.14 µM in the experiment with NCI-H226 lung; 4.92 µM in the experiment with MCF7 breast; above 100 µM in the experiment on TK-10 renal; 2.93 µM in the experiment with OVCAR-8 ovarian; 9.26 µM in the experiment with SK-MEL-28 melanoma. The GI50 with MDA-MB-231 breast is 3.88 µM; in the experiment with SK-MEL-2 melanoma, above 100 µM; in the experiment with 786-0 renal, 5.84 µM; with A498 renal, 8.61 µM. For the same compound, the TGI in the experiment on DU-145 prostate is above 100 µM; in the experiment with NCI-H226 lung, 80.9 µM; in the experiment on MCF7 breast it was above 100 µM; with TK-10 renal it was above 100 µM; in the experiment on OVCAR-8 ovarian, above 100 µM; in the experiment with SK-MEL-28 melanoma it was above 100 µM. In addition, the TGI in the experiment with MDA-MB-231 breast, in the experiment on SK-MEL-2 melanoma, in the experiment on 786-0 renal and in the experiment with A498 renal was above 100 µM in each case.
